Data published in US6831061B2, “Apicidin-derivatives, their synthetic methods and anti-tumor compositions containing them” (priority 2000, dated 2004).
Converted amounts (≈) assume the structure as drawn. Where two headings read alike, the source gives them in different places.

How the values were obtained:
[1] = system: LL86 (human normal lung cell line); experiment: Cell growth inhibition assay (SRB assay), LL86; assay type: cell-based
Description: (§1) HeLa (human cervical cancer cell line), v-ras-transformed NIH3T3 (mouse fibroblast cell line), Colon 3.1-M26 (mouse colon cancer cell line), MG63 (human osteosarcoma cell line) and MCF-7 (human breast cancer cell line) cells were cultured in DMEM (Dulbecco's modified Eagle's medium, produced by Life Technologies, Inc.). A2058 (human melanoma cell line), AGS (human gastric adenocarcinoma cell line), HBL-100 (human breast cancer cell line), CCD-18Co (human normal colon cell line) and LL86 (human normal lung cell line) cells were cultured in RPMI 1640 (Life Technologies, Inc.) in the presence of 10% FBS and 1% penicillin/streptomycin.
(§2) A cell growth inhibition assay according to sulforhodamine B (SRB) protein dye assay was carried out to examine the effects of apicidin derivative prepared in the Examples on mouse and human cancer cells. The cells were placed in wells and during cultivation were treated with 0.01, 0.1, 0.5, 1, and 2 μg/mL of apicidin, SD9801, SD9802, SD9803, the compound of Example 1, the compound of Example 2 and the compound of Example 3.
(§3) After 48 hours of cultivation, the media were removed from the well plates. The cells were fixed with 1 mL of 10% trichloroacetic acid at 4° C. washed 5 times with distilled water and completely dried in the air. The wells were treated with 0.4% SRB solution and died for 30 minutes at an ambient temperature. Subsequently, the wells were washed 5 times with distilled water and dried for 18 hours. To the respective wells, Tris-HCl (1 mL, 10 mM) was added to dissolve the proteins bonded to SRB. The contents of each well were removed and measured for their absorption at 490 nm.

[2] = system: AGS (human gastric adenocarcinoma cell line); experiment: Cell growth inhibition assay (SRB assay), AGS; assay type: cell-based; conditions: 48 h
Description: as §1, §2, §3

[3] = system: HBL-100 (human breast cancer cell line); experiment: Cell growth inhibition assay (SRB assay), HBL-100; assay type: cell-based; conditions: HBL-100, 48 h
Description: as §1, §2, §3

[4] = system: Histone deacetylase purified from HeLa cells; experiment: In vitro histone deacetylation assay; assay type: biochemical, human; conditions: [3H]acetyl histone substrate, 37° C., 20 minutes; read-out: Histone deacetylase inhibition IC50
Description: Histone deacetylase was purified from HeLa cells. The activity of histone deacetylase was measured according to a method known in the art—See, e.g., Inoue, A. et al., Biochem. Biophys. […] Here, histone with [^3H]acetyl group labeled with radio-active materials was used as a substrate for measurement of activity of histone deacetylase. After incubation at 37° C. for 20 minutes, [^3H]acetic acid released into medium was extracted with ethylacetate and quantified using a liquid radiation detection method.

[5] = system: CCD-18Co (human normal colon cell line); experiment: Cell growth inhibition assay (SRB assay), CCD-18Co; assay type: cell-based; conditions: for Growth inhibition IC50 / IC50: CCD-18Co normal cells, SRB assay; for Growth inhibition IC50: 48 hours; for IC50: Homo sapiens, CCD-18Co, 48 h
Description: as §1, §2, §3

[6] = system: v-ras-transformed NIH3T3 (mouse fibroblast cell line); experiment: Cell growth inhibition assay (SRB assay), v-ras-transformed NIH3T3; assay type: cell-based; conditions: NIH3T3, 48 h
Description: as §1, §2, §3

[7] = system: Colon 3.1-M26 (mouse colon cancer cell line); experiment: Cell growth inhibition assay (SRB assay), Colon 3.1-M26; assay type: cell-based; conditions: for IC50: Mus musculus, 48 h
Description: as §1, §2, §3

[8] = system: MCF-7 (human breast cancer cell line); experiment: Cell growth inhibition assay (SRB assay), MCF-7; assay type: cell-based; conditions: MCF7, 48 h, read-out: Growth inhibition IC50, MCF-7 cancer cells, SRB assay, 48 hours
Description: as §1, §2
(§4) After 48 hours of cultivation, the media were removed from the well plates. The cells were fixed with 1 mL of 10% trichloroacetic acid at 4° C. washed 5 times with distilled water and completely dried in the air. […] The contents of each well were removed and measured for their absorption at 490 nm.

[9] = system: HeLa (human cervical cancer cell line); experiment: Cell growth inhibition assay (SRB assay), HeLa; assay type: cell-based; conditions: 48 h, read-out: Growth inhibition IC50, HeLa cancer cells, SRB assay, 48 hours
Description: as §1, §2, §4

[10] = system: MG63 (human osteosarcoma cell line); experiment: Cell growth inhibition assay (SRB assay), MG63; assay type: cell-based; conditions: MG-63, 48 h, read-out: Growth inhibition IC50, MG63 cancer cells, SRB assay, 48 hours
Description: as §1, §2, §4

[11] = system: A2058 (human melanoma cell line); experiment: Cell growth inhibition assay (SRB assay), A2058; assay type: cell-based; conditions: for IC50: Homo sapiens, A2058, 48 h, read-out: Growth inhibition IC50, A2058 cancer cells, SRB assay, 48 hours
Description: as §1, §2, §3

[12] = 48 h, read-out: Growth inhibition IC50, LL86 normal cells, SRB assay, 48 hours
[13] = LL86 normal cells, SRB assay, 48 hours, read-out: Growth inhibition IC50
[14] = AGS cancer cells, SRB assay, 48 hours, read-out: Growth inhibition IC50
[15] = HBL-100 cancer cells, SRB assay, 48 hours, read-out: Growth inhibition IC50
[16] = v-ras-transformed NIH3T3 cancer cells, SRB assay, 48 hours, read-out: Growth inhibition IC50
[17] = Colon 3.1-M26 cancer cells, SRB assay, 48 hours
[18] = Colon 3.1-M26 cancer cells, SRB assay, 48 hours, read-out: Growth inhibition IC50
[19] = read-out: Growth inhibition IC50, AGS cancer cells, SRB assay, 48 hours
[20] = read-out: Growth inhibition IC50, HBL-100 cancer cells, SRB assay, 48 hours
[21] = read-out: Growth inhibition IC50, v-ras-transformed NIH3T3 cancer cells, SRB assay, 48 hours
[22] = read-out: Growth inhibition IC50, Colon 3.1-M26 cancer cells, SRB assay, 48 hours

With `CCC(CCCCCC1NC(=O)C2CCCCN2C(=O)C(C(C)CC)NC(=O)C(Cc2cn(OC)c3ccccc23)NC1=O)=NN` (stereo not shown) [Example 2, Hydrazone Derivative of Apicidin] the IC50 [1, 12] was 4.27 to 18.2 µg/mL (≈ 6.69 to 28.6 µM), the IC50 [1, 13] was 16.3 µg/mL (≈ 25.6 µM) and the IC50 [2, 14] was < 0.2 µg/mL. For the same molecule, the IC50 [3, 15] was < 0.2 µg/mL, the IC50 [4] was 3 nM and the “Growth inhibition IC50” value [5] was 8.51 µg/mL. For the same molecule, the IC50 [5] was 4.27 to 18.2 µg/mL (≈ 6.69 to 28.6 µM), the IC50 [6, 16] was < 0.2 µg/mL and the “Growth inhibition IC50” value [7, 17] was 0.20 µg/mL. For the same molecule, the IC50 [7, 18] was 0.2 to 2.07 µg/mL (≈ 0.314 to 3.25 µM).

`CCC(CCCCCC1NC(=O)C2CCCCN2C(=O)C(C(C)CC)NC(=O)C(Cc2cn(OC)c3ccccc23)NC1=O)=NNC(=O)NN` (stereo not shown) [Example 4, Carbohydrazone Derivative of Apicidin] was tested, and the IC50 [4] was 39 nM.

`CCC(CCCCCC1NC(=O)C2CCCCN2C(=O)C(C(C)CC)NC(=O)C(Cc2cn(OC)c3ccccc23)NC1=O)=NNC(C)(C)C` (stereo not shown) [Example 3, tert-butylhydrazone Derivative of Apicidin] was tested, and the IC50 [1, 12] was 4.27 to 18.2 µg/mL (≈ 6.15 to 26.3 µM), the IC50 [1, 13] was 14.8 µg/mL (≈ 21.3 µM) and the IC50 [2, 14] was < 0.2 µg/mL. The IC50 [3, 15] was < 0.2 µg/mL, the IC50 [4] was 25 nM and the “Growth inhibition IC50” value [5] was 4.27 µg/mL. For the same molecule, the IC50 [5] was 4.27 to 18.2 µg/mL (≈ 6.15 to 26.3 µM), the IC50 [6, 16] was < 0.2 µg/mL and the “Growth inhibition IC50” value [7, 17] was 0.21 µg/mL. The IC50 [7, 18] was 0.2 to 2.07 µg/mL (≈ 0.288 to 2.98 µM).

`CCC(=O)CCCCC[C@@H]1NC(=O)[C@H]2CCCCN2C(=O)[C@H]([C@@H](C)CC)NC(=O)[C@H](Cc2cn(OC)c3ccccc23)NC1=O` [Apicidin, apicidin] showed an IC50 [1, 12] of 4.25 µg/mL (≈ 6.81 µM), an IC50 [2, 19] of 0.13 µg/mL (≈ 0.208 µM) and an IC50 [3, 20] of 0.57 µg/mL (≈ 0.914 µM). It also gave an IC50 [8] of 1.17 µg/mL (≈ 1.88 µM), an IC50 [5] of 2.36 µg/mL (≈ 3.78 µM) and an IC50 [9] of 0.51 µg/mL (≈ 0.818 µM). It also gave an IC50 [6, 21] of 0.18 µg/mL (≈ 0.289 µM), an IC50 [7, 22] of 0.17 µg/mL (≈ 0.273 µM) and an IC50 [10] of 1.88 µg/mL (≈ 3.01 µM). The IC50 [11] was 0.55 µg/mL (≈ 0.882 µM).

`CCC(CCCCCC1NC(=O)C2CCCCN2C(=O)C(C(C)CC)NC(=O)C(Cc2cn(OC)c3ccccc23)NC1=O)=NNC(N)=O` (stereo not shown) [Example 1, Semicarbazone Derivative of Apicidin] was tested, and the IC50 [2, 19] was < 0.2 µg/mL, the IC50 [3, 20] was < 0.2 µg/mL and the IC50 [4] was 1 nM. For the same molecule, the “times higher safety against normal cell growth than the parent compound, apicidin” value ([5]; normal cell growth) was “about 5 times”, the IC50 [6, 21] was < 0.2 µg/mL and the “Growth inhibition IC50” value [7, 17] was 0.20 µg/mL. The IC50 [7, 22] was 0.2 to 2.07 µg/mL (≈ 0.294 to 3.04 µM), the “Growth inhibition IC50” value ([11]; A2058 cancer cells, SRB assay, 48 hours) was 0.34 µg/mL and the IC50 [11] was 0.2 to 2.07 µg/mL (≈ 0.294 to 3.04 µM).
